Assay: Human HepG2 cell viability assay in 384 well format
Type: toxicity, cell-based
Parameters: dose 125 nL, time 70.5 hour; cytotoxicity at 70.5 h: concentration not given beside the values
Settings: HepG2 cells, read-out: Inhibition

SMILES	cytotoxicity at 70.5 h
NC(=O)C1CCN(C(=O)CCSCc2ccc(Cl)c(Cl)c2)CC1	-7.23%
O=C(O)c1ccnc(SCC(=O)c2ccccc2)c1	14.5%
Cn1cnc2nc3n(c2c1=O)CCC3	13.6%
COC(=O)c1cnn(-c2cc(Oc3cccc(C)c3)ncn2)c1N	4%
O=S(=O)(c1cnccc1N1CCN(CCO)CC1)N1CCCCC1	27.8%
CCCN(CCC)c1nc(N)nc(-c2cc(Cl)ccc2OC)n1	-2.85%
CN1CCN(c2ccncc2S(=O)(=O)N2CCCCC2)CC1	0.146%
O=c1ncn(-c2cccc(F)c2)c2ncccc12	-0.419%
Cc1ccccc1C(O)c1ccncc1 (stereo unspecified)	-8.85%
Cc1ccc(NC(=O)Cc2cnc3n(C)c(=O)[nH]c(=O)n23)cc1	-8.62%
Cn1c(=O)[nH]c(=O)n2c(CC(=O)NCc3ccccc3)cnc12	-12.3%
COC(=O)Cn1c(=O)nc2n1C(=O)N(c1ccc(C)cc1)C2	13.2%
CC(C)n1[nH]c(=O)c2c1NC(=O)CC2c1cccc(Br)c1 (stereo unspecified)	-12.9%
CC(C)(C)n1ncc2c1NC(=O)CC2c1cccc(O)c1 (stereo unspecified)	-4.31%
O=C(CSC1CCc2ccccc2NC1=O)NCc1cccs1 (stereo unspecified)	-13.4%
O=C(CCSC1CCc2ccccc2NC1=O)NCCCO (stereo unspecified)	-12.2%
O=C(Cn1cc(-c2ccccc2)ncc1=O)Nc1ncc[nH]1	-12.3%
COc1cccc(NC(=O)Cn2cc(-c3ccccc3)ncc2=O)c1	-8.81%
CC(C)NC(=O)C(NC(=O)N1CCN(c2ccc(Cl)cc2)CC1)C(C)C (stereo unspecified)	-13.3%
O=C(NCc1ccc(F)cc1)C1CCCN(c2ccc3nncn3n2)C1 (stereo unspecified)	22%
COC(=O)Cn1c(=O)nc2n1C(=O)N(c1cccc(Cl)c1)C2	-5.07%
CCOc1ccc(Oc2cc(N)ccn2)cc1	-4.03%
O=c1[nH]c2ccccc2c2c1CCO2	-2.59%
COc1ccc(Cl)cc1-c1nc(N)nc(N)n1	26%

SMILES	cytotoxicity at 70.5 h
COc1ccccc1-n1c(O)cc(C)c(C#N)c1=O	-1.09%
CNS(=O)(=O)c1cnccc1N1CCN(C(C)C)CC1	2.6%
CCC(=O)NS(=O)(=O)c1cccnc1Nc1cccc(Cl)c1Cl	31.6%
Cn1ccnc1Sc1ccc(S(N)(=O)=O)cn1	-5.03%
O=S(=O)(c1cnccc1N1CCN(CCO)CC1)N1CCOCC1	11.8%
Cn1cc(I)c(C(=O)NC2CCCC2)n1	10.4%
CCC(CO)NCc1ccc(-c2ccccc2F)o1 (stereo unspecified)	-6.8%
O=C(CSc1nnc2n1N=CN(c1ccccc1)C2)c1ccccc1	-7.5%
CC(=O)CSc1nnc2n1N=CN(c1cccc(Cl)c1)C2	-8.9%
CCOC1Sc2nnc(C)n2N=C1c1ccc(F)cc1 (stereo unspecified)	-5.95%
CC(=O)c1c(O)n(C)c2ccccc12	25.3%
COc1cc(C)c2c(c1C)C[C@@H](C(C)C(=O)O)CC2 (stereo partly specified)	-3.12%
CN(C)Cc1cn(-c2ccccc2C(=O)NCCC2CCCN2C)cn1 (stereo unspecified)	24.5%
COCCN1CCCC(c2nccnc2-c2cccc(Cl)c2)C1 (stereo unspecified)	21%
COc1ccccc1-c1cccc(C2CCCN(C3CCOCC3)C2)n1 (stereo unspecified)	22.7%
CO[C@@H]1CCC[C@@H](NC(=O)c2cccc(F)c2)[C@H]1O	-1.9%
CNC(=O)c1ccc(C2CN(c3cc(C)nc(N)n3)CCO2)nc1 (stereo unspecified)	20%
COCCN1CCN(Cc2cnc(C3(C)CCCCO3)nc2)CC1 (stereo unspecified)	0.727%
Cn1nccc1CN1CCOC(c2ccc(-c3cncnc3)cn2)C1 (stereo unspecified)	-6.28%
Cn1nccc1-c1cncc(C2CCCN(S(C)(=O)=O)C2)n1 (stereo unspecified)	-7.56%
Cn1nccc1-c1cccc(CC2CCN(S(C)(=O)=O)C2)n1 (stereo unspecified)	-4.28%
COc1ccc(Cc2nnc(NC(=O)C3CC34CCC4)s2)cc1OC (stereo unspecified)	0.282%
COc1nsc2nc(C3CCCN3C(C)=O)ccc12 (stereo unspecified)	-3.15%
CC(=O)N[C@@H]1CN(C(=O)c2cccc(C)c2)C[C@H]1O	-8.6%

SMILES	cytotoxicity at 70.5 h
Cc1nc(N(C)C)cc(C2(C)CCCNC2)n1 (stereo unspecified)	-2.1%
CC1(c2ncc(CN3CCN(c4ccccn4)CC3)cn2)CCCCO1 (stereo unspecified)	-1.83%
CN(C)Cc1cn(-c2ccccc2C(=O)NCC2CCCCN2C)cn1 (stereo unspecified)	25.3%
CCC(=O)N1CCOC(c2cc(Nc3nncs3)cc(C)n2)C1 (stereo unspecified)	-5.24%
CS(=O)(=O)N1CCCC(c2cccc(-c3ccccc3F)n2)C1 (stereo unspecified)	-7.63%
O=C(c1cnco1)N1CCC(Cc2cnc3ccccc3c2)CC1	-1.49%
O=S(=O)(c1cn[nH]c1)N1CCC(O)(CN2CCC(F)(F)CC2)C1 (stereo unspecified)	1.83%
Cc1cccc(C)c1Nc1noc2c1CN(C(=O)c1ccn(C)n1)CC2	46.4%
Cc1nn(C)cc1CN1CCC(c2ncc(Cl)cc2S(C)(=O)=O)CC1	-6.84%
CC(C)c1cc(C(=O)N2CCN(c3ncc4c(n3)CCOC4)CC2)on1	14.5%
O=C(NCc1ccnc(C2CCCOC2)n1)c1cccs1 (stereo unspecified)	14.1%
CN1CCCC(c2nccnc2-c2cccc(Cl)c2)C1 (stereo unspecified)	-9.62%
CO[C@@H]1CCC[C@@H](NC(=O)C(C)(C)c2cccc(F)c2)[C@H]1O	-7.35%
CC(=O)Nc1cccc([C@H]2C[C@@H](NC(C)=O)CCO2)c1	13.2%
Cc1nn(C)cc1CN1CCCC1c1cccc(Nc2nccs2)n1 (stereo unspecified)	35.9%
COc1cccc(F)c1CN1CCC(c2nccc(C)n2)C1 (stereo unspecified)	-9.63%
Cc1cc(-c2ccnn2C)nc(C2CCCN(S(C)(=O)=O)C2)n1 (stereo unspecified)	-13.9%
Cn1cnc(CN2Cc3nccn3CC2c2ccccc2)c1 (stereo unspecified)	-7.94%
CCCN(CCO)S(=O)(=O)c1ccc2[nH]c(=O)[nH]c2c1	1.55%
CN(Cc1ncc(-c2ccccc2C(=O)O)s1)c1ncccn1	31.6%
CC(=O)N1CC(c2ccnc(Nc3nccs3)n2)C1	-12.9%
O=C(NCCc1cc(N2CCOCC2)nc(N2CCCC2)n1)C1CC1	-5.52%
COc1cc(CCC(=O)N2CCC(c3cc4ncc(C)nc4[nH]3)C2)on1 (stereo unspecified)	19.5%
O=C(NCCc1cc(N2CCOCC2)nc(NC2CC2)n1)C1CCCO1 (stereo unspecified)	-6.3%

SMILES	cytotoxicity at 70.5 h
O=C(NCCc1cc(N2CCOCC2)nc(NC2CC2)n1)C1CC1	-14%
Cc1nonc1CNC(=O)C(C)Oc1ccccc1F (stereo unspecified)	-7.96%
CN(C)S(=O)(=O)N1CCOC(c2cccc(-c3cncnc3)n2)C1 (stereo unspecified)	-10.8%
CN1CCCCC1(C)C(=O)N1CCC(c2ccccn2)CC1 (stereo unspecified)	14.5%
O=C(O)c1ccccc1-c1ccc(CN2CC(c3ccncn3)C2)o1	-5.44%
Cc1cncnc1C1CCN(C(=O)C2(C)CCCCN2C)CC1 (stereo unspecified)	-4.92%
CCC(O)Cn1nc(-c2ccc(C(=O)O)cc2)cc1-c1ccc(F)cc1 (stereo unspecified)	-5.44%
CC1(c2ncc(CN(CC(=O)O)Cc3ccccc3)cn2)CCCCO1 (stereo unspecified)	-7.96%
O=c1[nH]c2ccc(S(=O)(=O)N(CCO)Cc3ccncc3)cc2[nH]1	-4.4%
CN(C)c1cccc(C(=O)N2CCn3c(nnc3C3CC3)C2)c1	19.2%
Cc1cc(-c2cnc(N3CCSCC3)nc2C(C)C)on1	-0.852%
Cc1cc(-c2cnc(N3CCCC3)nc2C(C)C)on1	-7.72%
CC(=O)NCCc1cc2nc(-c3ccncc3)ccn2n1	-4.37%
CCc1cc(O)n2nc(C3CCN(C(=O)c4ccncc4)CC3)cc2n1	20.6%
CN1CCN([C@@H]2CN(C(=O)CCOc3ccccc3)C[C@H]2O)CC1	10.8%
Cn1ccc2cc(CC3COCCN(C(=O)c4ccccn4)C3)ccc21 (stereo unspecified)	-6.94%
Cc1cc(Oc2ccccc2)nc(C2CCN(CCO)CC2)n1	-6.09%
Cc1nc2ccc(C(=O)N3CCn4c(nnc4C4CC4)C3)cc2nc1C	-4.74%
CC1CCCCN1c1nc2c(c(=O)[nH]1)CCN(Cc1ccccc1F)C2 (stereo unspecified)	-5.68%
CCN(CC)C(=O)Cn1c(=O)n(Cc2ccco2)c2ncccc21	-3.1%
Cc1ccsc1CN1CCc2c(nc(N3CCCCC3C)[nH]c2=O)C1 (stereo unspecified)	-6.71%
CCN1CCN(c2ncc(-c3cc(C)no3)c(-c3ccco3)n2)CC1	-3.95%
COc1cnc(C2(O)CCN(C(=O)c3ccco3)CC2)c(OC)n1	-9.83%
O=S(=O)(c1ccc(F)cc1)N1CCCC1c1cc[nH]n1 (stereo unspecified)	-7.22%

SMILES	cytotoxicity at 70.5 h
O=S(=O)(c1ccccc1)N1CCCC1c1cc[nH]n1 (stereo unspecified)	-8.7%
Cc1ccc(C(=O)N2CC[C@H](Oc3cccnc3C)[C@@H](O)CC2)s1	4.2%
CCn1cc(CN2CCC(c3[nH]ncc3S(C)(=O)=O)C2)cn1 (stereo unspecified)	0.805%
Cc1nccn1-c1cncc(C2CCCN2Cc2ccccc2)n1 (stereo unspecified)	14.2%
O=C(c1ccccc1Cl)N1CC[C@H](O)[C@@H](N2CCOCC2)CC1	-4.63%
O=C(CCN1CCCC1)Nc1c2c(cc3c1CCC3)CCC2	-0.353%
O=C(c1cccnc1N1CCN(CCO)CC1)N1CCCC1	-1.63%
CCC(CO)NCc1ccc(-c2ccc(Br)cc2)o1 (stereo unspecified)	0.103%
CCC(CO)NCc1ccc(-c2ccc(F)c(Cl)c2)o1 (stereo unspecified)	3.9%
CCC(CN1CCCC1)n1cncc1-c1cnn(-c2ccccc2)c1 (stereo unspecified)	-2.29%
Cc1cc(F)ccc1-c1ccccc1CC1CNCCNC1=O (stereo unspecified)	5.41%
NC1CCc2nc(-c3ccncc3)nc(Nc3cccc(F)c3)c2C1 (stereo unspecified)	9.56%
FC(F)(F)c1nc(C2CCNCC2)no1	-2.97%
Cn1ccnc1C1(O)CCN(C(=O)CCc2ccccc2)CC1	-5.37%
Cn1ccnc1C1(O)CCN(C(=O)Cc2ccccc2)CC1	-6.34%
FC(F)CNc1cnc(C2CCNCC2)cn1	-5.8%
CN(C)c1cccc(C(=O)N2CCCC2c2ncc3c(n2)CCNC3)c1 (stereo unspecified)	-2.08%
COc1ccc(CN(C)[C@@H]2COC[C@H]2c2ccc(F)cc2)cc1	-10.1%
Cc1c(NC(=O)CN2CCN(C3CCCC3)C(=O)C2)cnn1C	-2.64%
c1ccc(Sc2ccc3c(c2)OCO3)c(CNC2=NCCN2)c1	-0.794%
